From patent publication US9725414B2, “Fungicidal N-bicycloalkyl and N-tricycloalkyl pyrazole-4-(thio)carboxamide derivatives” (priority 2011, dated 2017)

Legend:
Botrytis cinerea = test: Example O: in vivo protective test on Botrytis cinerea (beans); settings: 100 ppm of active ingredient, lesion size 2 days after inoculation
Protocol: In Vivo Protective Test on Botrytis cinerea (Beans)
Solvent: 24.5 parts by weight of acetone • 24.5 parts by weight of N,N-dimethylacetamide
Emulsifier: 1 part by weight of alkylaryl polyglycol ether
To produce a suitable preparation of active compound, 1 part by weight of active compound is mixed with the stated amounts of solvent and emulsifier, and the concentrate is diluted with water to the desired concentration.
To test for preventive activity, young plants are sprayed with the preparation of active compound. After the spray coating has dried on, 2 small pieces of agar covered with growth of Botrytis cinerea are placed on each leaf. The inoculated plants are placed in a darkened chamber at 20° C. and a relative atmospheric humidity of 100%.
2 days after the inoculation, the size of the lesions on the leaves is evaluated. 0% means an efficacy which corresponds to that of the untreated control, while an efficacy of 100% means that no disease is observed.

Alternaria solani = test: Example C: in vivo preventive test on Alternaria solani (tomato); settings: 500 ppm of active ingredient, evaluated 7 days after inoculation
How it was run: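 Young tomato plants sprayed preventively with compound formulated in DMF/emulsifier and diluted with water, then inoculated one day later with Alternaria solani spores. Plants were held one day at about 22° C, 100% humidity, then at about 20° C, 96% humidity.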

| Structure (SMILES) | Efficacy (Botrytis cinerea) | Efficacy (Alternaria solani) |
| --- | --- | --- |
| Cn1nc(C(F)F)c(C(=O)N(CC2CC3CCC2C3)C2CC2)c1F (stereo not shown) [Example 71] | 97% | 100% |
| CC(C1CC2CCC1C2)N(C(=O)c1c(C(F)F)nn(C)c1F)C1CC1 (stereo not shown) [Example 93] | 100% | 95% |
